According to patent US8097431B2 (priority 2004, dated 2012):

Experiments:
LexA-DBD:PR-LBD:VP16 = target: T1, LexA-DBD:PR-LBD:VP16 (Homo sapiens, UniProt P06401); assay: yeast progesterone tripartite bioassay; assay type: cell-based; conditions: progesterone receptor tripartite
T1 construct: expressed in transfected cells; host or cells: Saccharomyces cerevisiae W303 diploid yARUP16 transformed with pARUP32 (yARUP49)
T1 sequence (P06401 with tags, fused parts or gaps): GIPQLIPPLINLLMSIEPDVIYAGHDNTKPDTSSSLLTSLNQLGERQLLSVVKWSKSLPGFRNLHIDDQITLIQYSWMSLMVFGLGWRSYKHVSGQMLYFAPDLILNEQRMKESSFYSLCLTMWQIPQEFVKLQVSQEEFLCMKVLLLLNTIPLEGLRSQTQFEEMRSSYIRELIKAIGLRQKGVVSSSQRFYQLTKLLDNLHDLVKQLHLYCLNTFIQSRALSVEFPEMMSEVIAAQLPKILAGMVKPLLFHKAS
Procedure: Yeast were inoculated from a plate into synthetic media lacking leucine, uracil and histidine supplemented with 2% dextrose. After 18 hr incubation at 30° C., cells were washed with synthetic media lacking leucine, uracil and histidine supplemented with glycerol and resuspended in glycerol media to an absorbance at 600 nm of 0.03. Cells were grown for 4 hr then 50 μL of cells were added to each well of a 96-well plate. 50 μl of steroid in phosphate buffered saline 0.5% BSA. Cells were grown at 30° C. in a shaking water bath for 18 hr. To detect β-galactosidase activity, 25 μl of cells and 25 μl of Beta-Glo (Promega, Madison Wis.) were transferred to a luminescent 96-well plate (Fisher, Pittsburgh, Pa.). After 30 min incubation at room temperature, the reaction mixture was read using Lumimark (Bio-Rad, Hercules, Calif.).

[1] = target: T2, progesterone tripartite system (Homo sapiens, UniProt P06401); assay: progesterone bioactivity in serum of women on birth control (progesterone tripartite system); assay type: in vivo; conditions: women on fourth generation progestin
T2 construct: expressed in transfected cells; host or cells: Saccharomyces cerevisiae W303 diploid yARUP16 transformed with pARUP32 (yARUP49)
T2 sequence (P06401 with tags, fused parts or gaps): T1 sequence (P06401 with tags, fused parts or gaps)
Procedure: Serum samples were pre-treated by diluting with an equal volume of 0.9 mg/mL K2EDTA, (150 μl of serum was added to 150 μl of 0.9 mg/mL K2 EDTA), vortexed briefly and heated for 5 min at 72 C. Pre-treated serum was added to yeast expressing the androgen or progesterone tripartite, prepared as follows.
Yeast were inoculated from a frozen stock into synthetic media lacking leucine, uracil, and histidine supplemented with 2% dextrose. […] Twenty-five microliters of mid-log yeast were added to each well of a 384-well plate using a, BioMek 2000 (Beckman-Coulter). Serum samples were diluted with an equal volume of 0.9 mg/mL K2EDTA, (150 μL of serum was added to 150 μL of 0.9 mg/mL K2 EDTA), vortexed briefly and heated for 5 min at 72° C. Ten microliters of pre-treated sample was added to the plate. Ten microliters of serially diluted compound in H2O was incubated with 25 μL of yeast (Thermolabsystems). The plate was covered with Aeroseal sealing film (Research Products International, Palatine Ill.), and placed on a plate shaker for 5 min and the plate was incubated for 17-18 hr at 28° C. in a humidified incubator. After overnight incubation, the plate was shaken for 5 min. […] After about 2-hr incubation at room temperature, the β-galactosidase in the reaction mixture was determined using Luminskan luminometer (Thermolabsystems). […]

SMILES | levels detectable by this method (LexA-DBD:PR-LBD:VP16) | serum progesterone levels of women on birth control [1]
CC(=O)[C@H]1CC[C@H]2[C@@H]3CCC4=CC(=O)CC[C@]4(C)[C@H]3CC[C@]12C [Progesterone, progesterone] | 1000-100,000 pg/ml | –
C[C@]12CCC(=O)C=C1[C@@H]1C[C@@H]1[C@H]1[C@@H]3[C@@H]4C[C@@H]4[C@@]4(CCC(=O)O4)[C@@]3(C)CC[C@@H]12 [drospireone] | – | lower
